The subject of assay [1] is MOLM14 D835Y cells. Put plainly: MOLM14 D835Y cell viability assay (Cell Titer Glo). Type of assay: cell-based. The settings on record: cell viability, Cell Titer Glo, 48 hours, read-out: MOLM14 D835Y IC50. The procedure, abridged: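 MOLM14 cells with FLT3 D835Y or F691L kinase-domain resistance mutations seeded at 1000 cells/well and exposed to compound for 48 h under standard incubator conditions. Viability read by CellTiter-Glo luminescence after 15 min at room temperature.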
On the technique in general: ATP-based viability assays read luminescence as a measure of living cells.

Assay [2] has as its target T1, FLT3 (Homo sapiens, UniProt P36888).
T1 sequence (P36888 27-993): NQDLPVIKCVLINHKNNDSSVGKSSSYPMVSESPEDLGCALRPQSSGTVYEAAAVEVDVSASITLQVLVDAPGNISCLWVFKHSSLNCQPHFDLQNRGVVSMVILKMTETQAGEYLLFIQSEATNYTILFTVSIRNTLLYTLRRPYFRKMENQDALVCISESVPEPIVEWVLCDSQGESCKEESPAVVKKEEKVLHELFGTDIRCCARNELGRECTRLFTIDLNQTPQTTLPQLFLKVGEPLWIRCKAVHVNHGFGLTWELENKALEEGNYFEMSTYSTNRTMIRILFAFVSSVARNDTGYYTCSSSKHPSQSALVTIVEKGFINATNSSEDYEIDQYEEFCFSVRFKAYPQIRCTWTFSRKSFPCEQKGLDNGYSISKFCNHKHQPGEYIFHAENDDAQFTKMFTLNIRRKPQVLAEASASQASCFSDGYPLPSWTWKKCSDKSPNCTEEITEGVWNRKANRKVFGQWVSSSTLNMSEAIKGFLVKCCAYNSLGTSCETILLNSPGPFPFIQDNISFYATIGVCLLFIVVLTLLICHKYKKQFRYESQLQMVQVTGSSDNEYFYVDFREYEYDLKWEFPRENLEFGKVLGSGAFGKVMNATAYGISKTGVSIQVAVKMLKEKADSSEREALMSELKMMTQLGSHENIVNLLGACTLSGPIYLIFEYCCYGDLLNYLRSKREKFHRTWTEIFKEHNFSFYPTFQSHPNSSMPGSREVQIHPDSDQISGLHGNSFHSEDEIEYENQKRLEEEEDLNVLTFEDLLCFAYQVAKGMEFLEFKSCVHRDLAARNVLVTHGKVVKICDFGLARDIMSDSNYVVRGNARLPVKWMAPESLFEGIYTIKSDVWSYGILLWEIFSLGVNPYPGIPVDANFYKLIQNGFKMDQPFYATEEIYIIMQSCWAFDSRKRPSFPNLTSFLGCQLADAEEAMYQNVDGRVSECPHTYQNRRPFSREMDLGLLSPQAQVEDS
The experiment in a line: RBC HotSpot Kinase Assay, FLT3. The settings on record: isolated kinase enzyme, 33P-ATP, P81 filter-binding. The arrangement: purchased Reaction Biology (RBC HotSpot). In kind it is biochemical. The procedure, abridged: (§1)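 Radiometric HotSpot assay of catalytic activity with isolated recombinant kinase, possibly truncated or kinase domain only. Buffer: 20 mM Hepes pH 7.5, 10 mM MgCl2, 1 mM EGTA, 0.01% Brij35, 0.02 mg/ml BSA, 0.1 mM Na3VO4, 2 mM DTT, 1% DMSO, with cofactors specific to each kinase.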

The target of assay [3] is T2, IRAK1 (Homo sapiens, UniProt P51617).
T2 construct: purchased Reaction Biology (RBC HotSpot)
The experiment in a line: RBC HotSpot Kinase Assay, IRAK1. Type of assay: biochemical. The note with it: isolated kinase enzyme, 33P-ATP, P81 filter-binding. The method, boiled down:
as §1

Assay [4] has as its system NF-κB-inducible SEAP reporter in THP-1-Blue NF-κB cells. The experiment in a line: NF-kB SEAP reporter assay in THP-1-Blue NF-κB cells. Type of assay: cell-based. The note with it: 24 hours. The procedure, abridged: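 Cells (1×10^5/well) stimulated with Pam3CSK4 (1 ng/mL) or hIL1B (1 ng/mL), then after 10-20 min given 10-point 1:10 compound dilutions from 1 μM or 3 μM for 24 h at 37° C. Secreted SEAP in supernatant read with QUANTI-Blue (30-60 min, 37° C) at 620 nm.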
In general terms: In a reporter assay the amount or activity of a reporter protein is the signal.

Assay [5] concerns MOLM14-D835Y cells (FLT3-ITD (D835Y) mutant). Put plainly: Combination drug screening with venetoclax in MOLM14 (D835Y) cells (Cell Titre Glo, 10 × 10). In kind it is cell-based. Details: Excess HSA (sum excess HSA score, combination with venetoclax): scale not given here. The settings on record: for Excess HSA (sum excess HSA score, combination with venetoclax): 10 × 10 dataset, Cell Titre Glo at 48 hours, optimal of 4 dose combinations, negative = synergy; for Concentration of a compound of the disclosure, or gilteritinib, needed to decrease the 62.5 nM Ven response to <10% in MOLM14(D835Y) cells: combination with 62.5 nM Venetoclax, Cell Titer Glo, 48 hours, response <10%. On the procedure: These assays were performed using the Cell Titre Glo assay, measured at 48 hours.
A smaller concentration indicates higher potency to synergize with Venetoclax.

Setting [6] is: THP-1-Blue NF-κB cells stimulated with Pam3CSK4 (1 ng/mL), read-out: NF-κB Pam3SCK4 IC50.
Where [7] appears, read: THP-1-Blue NF-κB cells stimulated with hIL1B (1 ng/mL), read-out: NF-κB IL1B IC50.

SMILES strings stand for the structures. Like-named read-outs stand apart in the source and are kept apart here.

Usually IC50 stands for the concentration at which inhibition is half-maximal.

T2 sequence (P51617 whole entry): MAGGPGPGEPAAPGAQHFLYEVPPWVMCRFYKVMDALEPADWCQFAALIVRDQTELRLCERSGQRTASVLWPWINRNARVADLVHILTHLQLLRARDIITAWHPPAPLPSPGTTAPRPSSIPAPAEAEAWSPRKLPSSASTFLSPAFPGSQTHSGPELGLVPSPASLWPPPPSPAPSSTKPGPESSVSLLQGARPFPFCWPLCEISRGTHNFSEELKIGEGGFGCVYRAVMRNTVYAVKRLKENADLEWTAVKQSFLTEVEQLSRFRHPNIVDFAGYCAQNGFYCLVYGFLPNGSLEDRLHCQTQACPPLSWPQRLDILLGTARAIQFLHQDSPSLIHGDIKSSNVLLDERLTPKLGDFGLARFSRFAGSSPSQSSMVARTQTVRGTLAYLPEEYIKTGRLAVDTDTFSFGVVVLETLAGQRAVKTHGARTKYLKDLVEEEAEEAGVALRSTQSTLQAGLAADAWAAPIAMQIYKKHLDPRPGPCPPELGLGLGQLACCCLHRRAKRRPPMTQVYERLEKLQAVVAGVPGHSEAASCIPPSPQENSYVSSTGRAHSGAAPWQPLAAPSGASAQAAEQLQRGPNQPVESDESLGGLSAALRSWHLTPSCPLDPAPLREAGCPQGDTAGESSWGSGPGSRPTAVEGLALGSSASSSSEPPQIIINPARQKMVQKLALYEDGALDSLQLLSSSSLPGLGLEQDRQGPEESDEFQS

In the case of `CC(O)(c1ccc2ncc(-c3ccnc(N[C@@H]4CCCNC4)n3)n2c1)C(F)(F)F` (single isomer, unassigned) [Compound 22a], the IC50 stood at 36 nM in assay [1], 0.6 nM in assay [2] and 19 nM in assay [3].
Regarding `CC(O)(c1ccc2ncc(-c3ccnc(N[C@@H]4CCCNC4)n3)n2c1)C(F)(F)F` (single isomer, unassigned) [Compound 23a], the IC50 was 16 nM in assay [1]; under 0.5 nM in assay [2]; 56 nM in assay [4] (setting [6]); 96 nM in assay [4] (setting [7]); 3 nM in assay [3].
As for `CC(O)(c1ccc2ncc(-c3ccnc(N[C@H]4CNCC[C@@H]4F)n3)n2c1)C(F)(F)F` (single isomer, unassigned) [Compound 25a], the half-maximal inhibitory concentration (IC50) in assay [1] (Homo sapiens, MOLM-14, 48 h) was 36 nM; in assay [2] it was under 0.5 nM; in assay [4] (setting [6]), 193 nM; in assay [4] (setting [7]), 152 nM; in assay [3] it was 17 nM. In addition, in assay [5], the “Excess HSA (sum excess HSA score, combination with venetoclax)” value (shortened to “Excess HSA”) is −1507. Besides, the “Concentration of a compound of the disclosure, or gilteritinib, needed to decrease the 62.5 nM Ven response to <10% in MOLM14(D835Y) cells” value in assay [5] is reported as 25 nM.
`CC(O)(c1ccc2ncc(-c3cncc(N[C@@H]4CCCNC4)n3)n2c1)C(F)(F)F` (single isomer, unassigned) [Compound 28a]: the half-inhibitory concentration (IC50) is 204 nM in assay [1] (Homo sapiens, MOLM-14, 48 h); 2 nM in assay [2]; 96 nM in assay [4] (setting [6]); 149 nM in assay [4] (setting [7]); 33 nM in assay [3].
With `CC(O)(c1ccc2ncc(-c3cncc(N[C@H]4CNCC[C@@H]4F)n3)n2c1)C(F)(F)F` (single isomer, unassigned) [Compound 31a], the IC50 is 162 nM in assay [1]; 1 nM in assay [2]; 138 nM in assay [4] (setting [6]); 100 nM in assay [4] (setting [7]); 17 nM in assay [3].
Regarding `COc1cc2ncc(-c3nc(N[C@H]4CNCC[C@@H]4F)ncc3F)n2nc1C1CC1` [Compound 1a, 4-(6-cyclopropyl-7-methoxyimidazo[1,2-b]pyridazin-3-yl)-5-fluoro-N-((3S,4S)-4-fluoropiperidin-3-yl)pyrimidin-2-amine], the half-maximal inhibitory concentration (IC50) came to 1 nM in assay [1] (Homo sapiens, MOLM-14, 48 h); 0.5 nM in assay [2]; 17 nM in assay [4] (setting [6]); 22 nM in assay [4] (setting [7]); 1 nM in assay [3]. Also, the “Excess HSA” value in assay [5] is on record as −1505. Further, the “Concentration of a compound of the disclosure, or gilteritinib, needed to decrease the 62.5 nM Ven response to <10% in MOLM14(D835Y) cells” value in assay [5] was determined as 1.6 nM.
For the molecule `FC(F)COc1cc2ncc(-c3ccnc(N[C@H]4CNCC[C@@H]4F)n3)n2nc1C1CC1` [Compound 4a, 4-(6-cyclopropyl-7-(2,2-difluoroethoxy)imidazo[1,2-b]pyridazin-3-yl)-N-((3 S,4S)-4-fluoropiperidin-3-yl)pyrimidin-2-amine], the IC50 in assay [1] (Homo sapiens, MOLM-14, 48 h) was 9 nM; in assay [2] it was under 0.5 nM; in assay [4] (setting [6]) it was 184 nM; in assay [4] (setting [7]), 166 nM; in assay [3] it was 31 nM. Moreover, in assay [5], the “Excess HSA” value is listed as −1769. Further, the “Concentration of a compound of the disclosure, or gilteritinib, needed to decrease the 62.5 nM Ven response to <10% in MOLM14(D835Y) cells” value in assay [5] was 6.3 nM.
As for `COc1cc2ncc(-c3nc(N[C@H]4CNC[C@@H]4F)ncc3F)n2nc1N1CCCS1(=O)=O` [Compound 111a, 2-(3-(5-fluoro-2-(((3S,4S)-4-fluoropyrrolidin-3-yl)amino)pyrimidin-4-yl)-7-methoxyimidazo[1,2-b]pyridazin-6-yl)isothiazolidine 1,1-dioxide], the IC50 was 13 nM in assay [1] (Homo sapiens, MOLM-14, 48 h); under 0.5 nM in assay [2]; 40 nM in assay [3].
On to `COc1cc2ncc(-c3nc(N[C@H]4CNCC[C@@H]4F)ncc3F)n2nc1N1CCCS1(=O)=O` [Compound 112a, 2-(3-(5-fluoro-2-(((3S,4S)-4-fluoropiperidin-3-yl)amino)pyrimidin-4-yl)-7-methoxyimidazo[1,2-b]pyridazin-6-yl)isothiazolidine 1,1-dioxide], for which the IC50 was 3 nM in assay [1] (Homo sapiens, MOLM-14, 48 h); under 0.5 nM in assay [2]; 235 nM in assay [4] (setting [6]); 355 nM in assay [4] (setting [7]); 19 nM in assay [3].

The values above are taken from patent US20260226048A1, “MULTI-CYCLIC IRAK AND FLT3 INHIBITING COMPOUNDS AND USES THEREOF” (CHILDREN'S HOSPITAL MEDICAL CENTER, priority 2023, published 2026).
